Where a SMILES comes first, the peptide text is derived from it. [ ]: non-standard residue; d: D form. Nle = CCCC[C@H](N)C(=O)O
Target: BTK (Homo sapiens, UniProt Q06187)
Test: biochemical
Settings: read-out: BTK inhibition (%), 0.75 uM BTK, […] probe 3l, 15 min preincubation

BTK, sequence (Q06187 402-655 limits assumed): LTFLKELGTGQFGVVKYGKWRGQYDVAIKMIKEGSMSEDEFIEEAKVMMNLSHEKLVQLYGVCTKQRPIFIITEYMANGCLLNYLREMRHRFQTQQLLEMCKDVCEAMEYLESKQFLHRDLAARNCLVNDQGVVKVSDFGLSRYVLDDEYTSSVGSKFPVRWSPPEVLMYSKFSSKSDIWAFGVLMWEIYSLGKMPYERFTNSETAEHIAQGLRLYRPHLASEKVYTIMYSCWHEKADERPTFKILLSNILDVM

Row | inhibition at 10 µM [%] | Structure (SMILES)
1 | 73.8 | CCc1nc(C(N)=O)c(Nc2ccc(N3CCC(N4CCN(C)CC4)CC3)c(OC)c2)nc1NC1CCOCC1 [PCM-0215866]
2 | 54.8 | Cc1nn(C)c2nc(NNC(=O)Nc3cc(Cl)nc(Cl)c3)cc(C(C)C)c12 [PCM-0215784]
3 | 31.7 | Nc1ccc(/C=C/C(=O)NCc2cc3cc(-c4ccc(C(=O)N5CCC(F)(F)CC5)cc4)cc(-c4ccc(F)cc4)c3o2)cn1 [PCM-0216035]
4 | 14.7 | CC/C(=C(\c1ccc(O)cc1)c1ccc(OCCNC)cc1)c1ccccc1 [PCM-0215485]
5 | 97.3 | COc1ccc2cc3[n+](cc2c1O)CCc1cc2c(cc1-3)OCO2 [PCM-0216489]
6 | 3.1 | O=C(O)CC(C(=O)O)n1c(O)c(C2=c3cc(Br)ccc3=NC2=O)sc1=S (centres unmarked) [PCM-0216114]
7 | 4.6 | C=C1C[C@@]23CC[C@H]4[C@@](C)(CCC[C@@]4(C)C(=O)O[C@@H]4O[C@H](CO)[C@@H](O)[C@H](O)[C@H]4O)[C@@H]2CC[C@]1(O[C@@H]1O[C@H](CO)[C@@H](O)[C@H](O)[C@H]1O)C3 [PCM-0216413]
8 | 21.6 | CCNC(=O)c1[nH]nc(-c2cc(Cl)c(O)cc2O)c1-c1ccc(OC)cc1 [PCM-0215298]
9 | 16.2 | CCOc1cc(C(C)(C)C)ccc1C1=N[C@@](C)(c2ccc(Cl)cc2)[C@@](C)(c2ccc(Cl)cc2)N1C(=O)N1CCN(CCCS(C)(=O)=O)CC1 [PCM-0215548]
10 | 23.2 | NCCNc1ccc(NCCN)c2c1C(=O)c1ccncc1C2=O [PCM-0215996]
11 | 3.9 | COc1ccc(CCO[C@@H]2O[C@H](CO[C@@H]3OC[C@H](O)[C@H](O)[C@H]3O)[C@@H](OC(=O)/C=C/c3ccc(O)c(OC)c3)[C@H](O[C@@H]3O[C@@H](C)[C@H](O)[C@@H](O)[C@H]3O)[C@H]2O)cc1O [PCM-0216311]
12 | 2.6 | Cc1ccccc1-c1cc(N2CCN(C)CC2)ncc1N(C)C(=O)C(C)(C)c1cc(C(F)(F)F)cc(C(F)(F)F)c1 [PCM-0215667]
13 | 70.3 | COc1ccc(S(=O)(=O)N(CCO)c2ccccc2CN(C)C/C=C/c2ccc(Cl)cc2)cc1 [PCM-0215495]
14 | -30.9 | CC(C)Oc1ccc(C(=O)N[C@H](CNC(=O)CN(C)C)Cc2ccc(-c3cn4cccc([C@H](C)O)c4n3)cc2)cc1Cl [PCM-0215312]
15 | -4.6 | CC(C)=C1C/C=C(\C)CC/C=C(\C)CC1=O [PCM-0216542]
16 | -1.4 | CN(C)c1cccc(-c2c3c(=O)n(-c4ccccc4Cl)[nH]c3cc(=O)n2C)c1 [PCM-0215425]
17 | 9.3 | CC(=O)c1ccc(O)cc1O [PCM-0215067]

Row | inhibition at 10 µM [%] | Structure (SMILES)
18 | 3.9 | CO[C@@H]1[C@H](OC(=O)/C=C/C=C/C=C/C=C/C(=O)O)CC[C@]2(CO2)[C@H]1[C@@]1(C)O[C@@H]1CC=C(C)C [PCM-0215572]
19 | 28.6 | COc1c(O)cc2c(c1O)C(=O)c1c(cc(C)c(O)c1OC)C2=O [PCM-0216431]
20 | 21.4 | CCCCOC(=O)c1ccccc1Nc1cccc(C(F)(F)F)c1 [PCM-0216094]
21 | -17 | O=C(Nc1cccc(C2=NCCN2)c1)Nc1cccc(C2=NCCN2)c1 [PCM-0216019]
22 | -2.6 | CC[C@H](C)n1cc(C)c2c(C(=O)NCc3c(C)cc(C)[nH]c3=O)cc(-c3ccc(N4CCNCC4)nc3)cc21 [PCM-0215444]
23 | 6.9 | OC[C@H]1O[C@@](CO)(OC[C@@]2(OC[C@@]3(OC[C@@]4(O[C@H]5O[C@H](CO)[C@@H](O)[C@H](O)[C@H]5O)O[C@H](CO)[C@@H](O)[C@@H]4O)O[C@H](CO)[C@@H](O)[C@@H]3O)O[C@H](CO)[C@@H](O)[C@@H]2O)[C@@H](O)[C@@H]1O [PCM-0216335]
24 | -0.9 | CC(C)(O)c1coc(S(=O)(=O)NC(=O)Nc2c3c(cc4c2CCC4)CCC3)c1 [PCM-0215611]
25 | 55.6 | COc1ccc2c(O[C@@H]3C[C@H]4C(=O)N[C@]5(C(=O)NS(=O)(=O)C6CC6)C[C@H]5/C=C\CCCCN(C)C(=O)[C@@H]4C3)cc(-c3nc(C(C)C)cs3)nc2c1C [PCM-0215097]
26 | 18.5 | CCCC[C@@H](C=O)NC(=O)[C@H](CC(C)C)NC(=O)[C@H](CC(C)C)NC(C)=O [PCM-0215374] (Ac-Leu-Leu-[Nle]-aldehyde)
27 | -13.1 | COc1cc2oc(=O)ccc2c(OC)c1C[C@@H](O)C(C)(C)O [PCM-0216455]
28 | 7.7 | O=C(O)[C@H](O)Cc1ccc(O)c(O)c1 [PCM-0215761]
29 | 16.2 | CC(=O)O[C@H]1C(=O)[C@]2(C)[C@H](O)C[C@H]3OC[C@@]3(OC(C)=O)[C@H]2[C@H](OC(=O)c2ccccc2)[C@]2(O)C[C@H](OC(=O)[C@H](O)[C@@H](NC(=O)c3ccccc3)c3ccccc3)C(C)=C1C2(C)C [PCM-0216508]
30 | -2.8 | CC(C)c1cnn2c(NCc3ccccc3-n3cccn3)nc(OC3CCCNC3)nc12 (centres unmarked) [PCM-0215792]
31 | 4.6 | C=C1[C@H]2CC[C@@H]3[C@H]2C(C)(C)CCC[C@]13C [PCM-0216219]
32 | 28.3 | O=C(NOCCO)c1ccc2cncn2c1Nc1ccc(I)cc1F [PCM-0215498]
33 | 17.9 | C[C@H]1Oc2cc(cnc2N)-c2c(nn(C)c2C#N)CN(C)C(=O)c2ccc(F)cc21 [PCM-0215394]
34 | -17.9 | C[N+](C)(C)CCOP(=O)(O)OP(=O)([O-])OC[C@H]1O[C@@H](n2ccc(N)nc2=O)[C@H](O)[C@@H]1O [PCM-0215877]

Further lines, the compound ahead of its results:

Row | Structure (SMILES) | inhibition at 10 µM [%]
35 | CNCCC(Oc1ccc(C(F)(F)F)cc1)c1ccccc1 (centres unmarked) [PCM-0065327] | -7.8
36 | CN(C)CCC[C@@]1(c2ccc(F)cc2)OCc2cc(C#N)ccc21 [PCM-0064474] | -6.2
37 | O=C1CCC(N2C(=O)c3ccccc3C2=O)C(=O)N1 (centres unmarked) [PCM-0064817] | 5.5
38 | COc1ccc2c(c1)c(C1=C(c3c[nH]c4ccccc34)C(=O)NC1=O)cn2CCCN(C)C [PCM-0095393] | 24.8
39 | CCN1CCN(C(=O)N[C@@H](C(=O)N[C@@H]2C(=O)N3C(C(=O)O)=C(CSc4nnnn4C)CS[C@H]23)c2ccc(O)cc2)C(=O)C1=O [PCM-0085943] | -12.5
40 | Nc1nc(N)nc(-c2cc(Cl)ccc2Cl)n1 [PCM-0086432] | 4.3
41 | C[C@@H]1O[C@@H](O[C@H]2[C@H](Oc3cc(O)c4c(c3)O[C@H](c3ccc(O)cc3)CC4=O)O[C@H](CO)[C@@H](O)[C@@H]2O)[C@H](O)[C@H](O)[C@H]1O [PCM-0088327] | -7
42 | CCCCN1CCCCC1C(=O)Nc1c(C)cccc1C (centres unmarked) [PCM-0085904] | -9.3
43 | c1ccc(NCc2ccc(CNc3ccccn3)cc2)nc1 [PCM-0095395] | -4.8
44 | CC(O)=C(C#N)C(=O)Nc1ccc(C(F)(F)F)cc1 [PCM-0214764] | 0
45 | C[C@@H]1O[C@@H](O[C@H]2[C@H](Oc3cc(O)c(C(=O)CCc4ccc(O)cc4)c(O)c3)O[C@H](CO)[C@@H](O)[C@@H]2O)[C@H](O)[C@H](O)[C@H]1O [PCM-0094838] | 14.8
46 | Cc1ccnc2c1NC(=O)c1cccnc1N2C1CC1 [PCM-0090346] | -3.1
47 | O=C(Nc1ccc(O)cc1)c1ccccc1O [PCM-0214902] | -10.9
48 | CNc1nc(Nc2cn(C(C)(C)C#N)nc2C)ncc1C(F)(F)F [PCM-0095754] | 7.6
49 | OC[C@H]1O[C@@H](Oc2ccc(O)cc2)[C@H](O)[C@@H](O)[C@@H]1O [PCM-0086306] | -6.2
50 | COc1cc(O)cc2c1C(=O)C[C@@H](c1ccccc1)O2 [PCM-0214998] | -12.5
51 | Cc1ccc(C)c(OCCCC(C)(C)C(=O)O)c1 [PCM-0085876] | -29.6
52 | C#CC[C@H](c1nc2cc(Cl)ccc2c(=O)n1Nc1ccccc1)N(CCCN)C(=O)c1cccc(Cl)c1F [PCM-0095802] | 52.5
53 | COc1ccc(C(C)=O)c(O)c1 [PCM-0091399] | 6.2

Row | Structure (SMILES) | inhibition at 10 µM [%]
54 | O=C(NCCN1CCOCC1)c1ccc(Cl)cc1 [PCM-0064796] | -3.9
55 | CCOC(=O)[C@H](CCc1ccccc1)N[C@@H](C)C(=O)N1C(=O)N(C)C[C@H]1C(=O)O [PCM-0214860] | 7
56 | COc1c(O)cc2c(c1O)[C@@H]1O[C@H](CO)[C@@H](O)[C@H](O)[C@H]1OC2=O [PCM-0214672] | 7
57 | Cc1cc(Nc2ncc(Cl)c(Nc3ccccc3S(=O)(=O)C(C)C)n2)c(OC(C)C)cc1C1CCNCC1 [PCM-0095745] | 69.7
58 | COc1cc2nc(N3CCN(C(=O)c4ccco4)CC3)nc(N)c2cc1OC [PCM-0065512] | -6
59 | O=C(O)c1cccnc1Nc1cccc(C(F)(F)F)c1 [PCM-0064877] | 24.1
60 | Cc1cccc(C)c1OCC(=O)N[C@@H](Cc1ccccc1)[C@@H](O)C[C@H](Cc1ccccc1)NC(=O)[C@H](C(C)C)N1CCCNC1=O [PCM-0214618] | -21.8
61 | COc1cc(Nc2ncc3c(n2)-c2ccc(Cl)cc2C(c2c(F)cccc2OC)=NC3)ccc1C(=O)O [PCM-0094940] | 83.4
62 | CCN(CCO)CCCOc1ccc2c(Nc3cc(CC(=O)Nc4cccc(F)c4)[nH]n3)ncnc2c1 [PCM-0094969] | 66.9
63 | CN(C)CCCCC(=O)Nc1ccc(NC(=S)NC(=O)c2ccc(C(C)(C)C)cc2)cc1 [PCM-0214793] | 7
64 | C=CC(=C)C [PCM-0216155] | 1.5
65 | CC1(C)[C@@H]2CC[C@@]1(C)[C@@H](O)C2 [PCM-0214946] | 3.1
66 | C[C@@H]1C/C=C/C=C/C=C/C=C/[C@H](O[C@@H]2O[C@H](C)[C@@H](O)[C@H](N)[C@@H]2O)C[C@@H]2O[C@](O)(C[C@@H](O)C[C@H]3O[C@@H]3/C=C/C(=O)O1)C[C@H](O)[C@H]2C(=O)O [PCM-0214709] | -22.6
67 | NC(=O)c1cnc(N[C@@H]2CCCC[C@@H]2N)nc1Nc1cccc(-n2nccn2)c1 [PCM-0095619] | 70.3
68 | O=C(O)c1cc(O)ccc1O [PCM-0215019] | -21.4
69 | CN1CCN(c2c(F)cc3c(=O)c(C(=O)O)cn4c3c2OCN4C)CC1 [PCM-0095142] | 0
70 | CC(C)CC(=O)Nc1n[nH]c2c1CN(C(=O)C1CCN(C)CC1)C2(C)C [PCM-0095172] | 17.9
71 | CC1(O)CC(c2nc(-c3ccc4ccc(-c5ccccc5)nc4c3)c3c(N)nccn23)C1 (centres unmarked) [PCM-0214568] | 33.1
